The source of these data is publication PMC8705783, “The Effect of Conjugation with Octaarginine, a Cell-Penetrating Peptide on Antifungal Activity of Imidazoacridinone Derivative” (International Journal of Molecular Sciences, 2021).

Structures are written as SMILES. Values after ≈ are worked out from the molar mass of the structure shown. Like-named read-outs stand apart in the source and are kept apart here. Where only a bound is given, the exact number is not on record here.

In one data set the test system is Candida albicans cells. On the set-up: method as in PMID 23563951. The settings on record: cited from earlier work.
Data set [1] concerns the target T1, yeast topoisomerase II (Saccharomyces cerevisiae, UniProt P06786). In words: Formation of cleavable complexes in vitro. The data set is classed as biochemical. The following applies: 0.1-10 μM, pBR322 plasmid DNA. The method, then:
Cleavage assay of yeast topoisomerase II was performed according to the formation of cleavable complexes kit from Inspiralis. The experimental conditions were the same as for the relaxation assay except for the amount of yeast topoisomerase II (16 times more enzyme was used). The reaction was initiated by the addition of the enzyme and allowed to proceed for 10 min at 30 °C. Then, 0.35% SDS and 0.3 mg mL^−1 proteinase K (A&A Biotechnology, Gdynia, Poland) was added, and the probes were incubated in 56 °C for 1 h. The reaction was terminated by the addition of 100 mM Tris-HCl pH 8, 10 mM EDTA, 0.5 mg mL^−1 Bromophenol Blue. Extraction with chloroform:isoamyl alcohol (24:1, by volume) was performed, and mixtures were analysed on the 1.2% agarose gel with 0.5 µg mL^−1 ethidium bromide in 1x TAE buffer, 18 h, 1.1 V cm^−1. Gel was photographed with the Gel Doc XR+Gel Documentation System.

For data set [2], the system named is Candida parapsilosis ATCC 22019.
The test system of data set [3] is Candida krusei ATCC 6258.
Another data set addresses human topoisomerase II. The settings on record: cited from earlier work.
Data set [4] deals with Candida glabrata ATCC 90030.
Another data set has as its system HEK-293. The data set can be described thus: cells. In kind it is cell-based, human. The procedure:
(§1) The investigated compounds were screened for their in vitro antiproliferative activity towards a human embryonic kidney cell line (HEK-293) and human liver cancer cell line (HEPG2) using colorimetric MTT.
(§2) The human embryonic kidney cell line (HEK-293) and human liver cancer cell line (HEPG2) were purchased from ATCC (Manassas, Virginia, USA). HEK-293 was cultured in Dulbecco’s Modified Eagle Medium (Corning, NY, USA) and HEPG2 in Minimum Essential Medium Eagle (Corning, NY, USA). For each cell line, the culture medium was supplemented with 10% fetal bovine serum, 2 mM L-glutamine, and antibiotics: penicillin 62.6 µg mL^−1 and streptomycin 40 µg mL^−1. The cells were cultured at the humidified atmosphere of 5% CO2/95% air and routinely tested for Mycoplasma contamination.
(§3) Antiproliferative activity of the compounds was determined by (3-(4,5-dimethylthiazol-2-yl)-2,5-diphenyltetrazolium bromide (MTT, Sigma-Aldrich, St. Louis, MO, USA) assay, which involves the assessment of cell viability by the measurement of the cellular oxidoreductase activity. Briefly, cells were seeded into 96-well culture plates and were allowed to adhere overnight. The investigated compounds were dissolved in DMSO and added to wells (1% final concentration of DMSO) in various concentrations. After 72 h incubation, 20 µL of MTT solution in PBS (4 mg mL^−1) was added to each well, and plates were incubated for an additional 3h in standard culture conditions. After that, the medium was aspirated, and formazan crystals were dissolved in DMSO. The absorbance was determined at 570 nm with a microplate reader (Asys UVM 340 Microplate Reader, Biochrom, Cambridge, UK). All experiments were performed three times independently in triplicate.

A further data set relates to HEPG2. In words: cells. In kind it is cell-based, human. The method, then:
as §1, §2, §3

Data set [5] relates to Candida krusei ATCC 6258. In words: microbe, parasite or virus in culture. The following applies: Pichia kudriavzevii, ATCC6258, 24 h, pH 7.
Data set [6] concerns Candida albicans ATCC 10231.
The subject of data set [7] is Candida albicans ATCC 10231. In words: microbe, parasite or virus in culture. The settings on record: ATCC10231, 24 h, pH 7.
For data set [8], the system named is Saccharomyces cerevisiae ATCC 9763.
Data set [9] has the same test system. The data set can be described thus: microbe, parasite or virus in culture. The settings on record: ATCC9763, 24 h, pH 7.
A further data set concerns HEK-293 and HEPG2. The data set can be described thus: Antiproliferative activity, MTT, both tested cell lines. The data set is classed as cell-based. The settings on record: Homo sapiens; Table 5. The method, then: as §1
The human embryonic kidney cell line (HEK-293) and human liver cancer cell line (HEPG2) were purchased from ATCC (Manassas, Virginia, USA). HEK-293 was cultured in Dulbecco’s Modified Eagle Medium (Corning, NY, USA) and HEPG2 in Minimum Essential Medium Eagle (Corning, NY, USA). For each cell line, the culture medium was supplemented with 10% fetal bovine serum, 2 mM L-glutamine, and antibiotics: penicillin 62.6 µg mL^−1 and streptomycin 40 µg mL^−1. […]
as §3, with “After that, the medium was aspirated, and formazan crystals were dissolved in DMSO. The absorbance was determined at 570 nm with a microplate reader (Asys UVM 340 Microplate Reader, Biochrom, Cambridge, UK). All experiments were performed three times independently in triplicate.” left out

The next data set relates to Candida albicans. On the set-up: method as in PMID 23563951. The following applies: cited from earlier work.
For another data set, the system named is reference strains. The data set can be described thus: Antifungal activity, summary over reference strains. In kind it is cell-based. More on the design: key to Antifungal Activity (level): (−) Means no antifungal activity; (±) low activity; (+) moderate activity; (++) high activity at the concentration mentioned.
In data set [10] the test system is Candida parapsilosis ATCC 22019. The data set can be described thus: microbe, parasite or virus in culture. The settings on record: Lodderomyces parapsilosis, ATCC22019, 24 h, pH 7.
For data set [11], the system named is Candida glabrata ATCC 90030. In words: microbe, parasite or virus in culture. The following applies: Nakaseomyces glabratus, ATCC90030, 24 h, pH 7.
Data set [12] has as its target T1, yeast topoisomerase II. In words: Yeast topoisomerase II relaxation assay. The data set is classed as biochemical. The settings on record: supercoiled pBR322, tested at 1-200 μM. The method, then:
Due to the known activity of acridine and acridone derivatives as human topoisomerase inhibitors widely analysed for cancer chemotherapy, we decided to analyse the influence of Compound 1 as well as its R8 conjugate on the fungal equivalent of that enzyme. The relaxation of supercoiled plasmid DNA by yeast topoisomerase II (yTOPO II) was studied in the presence of different concentrations of both compounds.
The inhibition of yeast topoisomerase II was analysed according to the relaxation assay kit from Inspiralis (Inspiralis Limited, Norwich, UK). Briefly, 250 ng of supercoiled pBR322 DNA (Thermo Fisher Scientific, Waltham, MA, USA), 1 mM ATP (Inspiralis Limited, UK), and 1–200 μM of the analysed compound were mixed with reaction buffer (1 mM Tris-HCl (pH 7.9), 10 mM KCl, 0.5 mM MgCl2, 0.2 % (by volume) glycerol). The reaction was initiated by the addition of an enzyme, allowed to proceed at 30 °C for 30 min and terminated by addition of 40% (m/V) sucrose, 100 mM Tris-HCl pH 8, 10 mM EDTA, and 0.5 mg mL^−1 Bromophenol Blue. Two-step extraction with chloroform:isoamyl alcohol (24:1, by volume) and butanol water was performed and mixtures were analysed on 1% agarose gel in 1 × TAE buffer, 3h, 4.5 V cm^−1. Gel was stained in GelRed 3 × staining solution (Biotium, Fremont, CA, USA) for 30 min and photographed with Gel Doc XR+Gel Documentation System (Bio-Rad: Hercules, CA, USA).

The next data set has as its system Candida albicans F5. The following applies: F5, 12 h.
The next data set relates to Candida albicans Gu5. The settings on record: Gu5, 12 h.
Another data set has as its system Candida albicans F2. The settings on record: F2, 12 h.
Another data set deals with HeLa cells. The settings on record: cited from earlier work.
The subject of a further data set is Candida albicans B3. The following applies: B3, 12 h.
The subject of the next data set is Candida albicans B4. The settings on record: B4, 12 h.
The next data set relates to Candida albicans Gu4. The settings on record: Gu4, 12 h.

T1 sequence (P06786 whole entry): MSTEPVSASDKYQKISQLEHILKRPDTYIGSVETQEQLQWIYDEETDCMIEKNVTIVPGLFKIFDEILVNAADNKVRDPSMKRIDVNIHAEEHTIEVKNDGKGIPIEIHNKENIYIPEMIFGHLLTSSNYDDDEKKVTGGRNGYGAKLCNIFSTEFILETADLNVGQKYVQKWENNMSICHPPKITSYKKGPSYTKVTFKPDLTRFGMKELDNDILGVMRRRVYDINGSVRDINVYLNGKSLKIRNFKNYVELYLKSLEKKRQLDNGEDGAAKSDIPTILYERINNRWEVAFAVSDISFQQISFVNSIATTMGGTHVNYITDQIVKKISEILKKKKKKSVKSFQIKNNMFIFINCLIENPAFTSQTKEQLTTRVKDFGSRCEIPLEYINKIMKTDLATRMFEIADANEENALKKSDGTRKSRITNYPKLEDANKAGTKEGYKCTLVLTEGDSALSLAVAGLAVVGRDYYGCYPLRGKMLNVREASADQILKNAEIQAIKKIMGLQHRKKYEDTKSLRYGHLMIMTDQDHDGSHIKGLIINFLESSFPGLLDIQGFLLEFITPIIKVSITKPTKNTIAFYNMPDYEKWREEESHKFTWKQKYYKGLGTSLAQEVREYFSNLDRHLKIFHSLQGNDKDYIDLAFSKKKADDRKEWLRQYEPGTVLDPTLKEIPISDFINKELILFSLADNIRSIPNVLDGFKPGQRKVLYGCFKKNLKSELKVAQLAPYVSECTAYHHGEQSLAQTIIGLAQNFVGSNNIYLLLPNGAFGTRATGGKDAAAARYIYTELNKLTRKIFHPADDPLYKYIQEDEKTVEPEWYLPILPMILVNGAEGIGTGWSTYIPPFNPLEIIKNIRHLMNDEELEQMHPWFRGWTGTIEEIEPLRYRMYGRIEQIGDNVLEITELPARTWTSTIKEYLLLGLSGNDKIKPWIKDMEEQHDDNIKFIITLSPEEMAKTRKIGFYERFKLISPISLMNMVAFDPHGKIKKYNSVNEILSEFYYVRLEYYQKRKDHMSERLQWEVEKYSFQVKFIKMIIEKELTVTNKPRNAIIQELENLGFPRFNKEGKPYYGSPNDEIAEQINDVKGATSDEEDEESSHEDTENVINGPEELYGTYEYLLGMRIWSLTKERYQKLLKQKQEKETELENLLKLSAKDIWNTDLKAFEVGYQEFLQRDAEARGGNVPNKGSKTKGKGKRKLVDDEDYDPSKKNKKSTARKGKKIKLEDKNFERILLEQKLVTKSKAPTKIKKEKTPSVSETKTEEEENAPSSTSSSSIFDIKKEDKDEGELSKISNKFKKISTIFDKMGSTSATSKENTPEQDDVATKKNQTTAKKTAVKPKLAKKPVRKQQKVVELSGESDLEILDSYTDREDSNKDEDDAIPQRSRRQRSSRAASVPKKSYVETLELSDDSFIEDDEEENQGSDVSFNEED

One may read the IC50 as the point on the concentration scale where inhibition reaches its midpoint. On to `CCN(CC)CCNc1ccc2ncn3c4ccc(O)cc4c(=O)c1c23` [Compound C-1311, 5-((2-(Diethylamino)ethyl)amino)-8-hydroxy-6H-imidazo[4,5,1-de]acridin-6-one], for which the “accumulation in Candida albicans cells” value with Candida albicans cells is reported as “unable to accumulate in Candida albicans cells”. Also, the “formation of DNA–yeast topoisomerase II cleavable complexes” value on yeast topoisomerase II [1] is reported as “stimulated the formation of DNA–yeast topoisomerase II cleavable complexes”. Besides, the “IC50 HEK293/MIC90 (mycostatic selectivity index)” value in data set [2] (HEK293 vs Candida parapsilosis ATCC 22019) is given as less than 0.00005; in the data set with Candida krusei ATCC 6258 [3] (HEK293 vs Candida krusei ATCC 6258), less than 0.00005; in data set [4] (HEK293 vs Candida glabrata ATCC 90030), less than 0.00005; in data set [6] (HEK293 vs Candida albicans ATCC 10231, MIC converted to micromolar), less than 0.00005; in [8] (HEK293 vs Saccharomyces cerevisiae ATCC 9763), less than 0.00005. The “IC50 HEPG2/MIC90 (mycostatic selectivity index)” value (in [2] (HEPG2 vs Candida parapsilosis ATCC 22019); in the data set on Candida krusei ATCC 6258 [3] (HEPG2 vs Candida krusei ATCC 6258); in data set [4] (HEPG2 vs Candida glabrata ATCC 90030); in data set [6] (HEPG2 vs Candida albicans ATCC 10231); in data set [8] (HEPG2 vs Saccharomyces cerevisiae ATCC 9763)) was less than 0.00078 throughout. Also, at human topoisomerase II, the “IC50 (hTOPO II inhibition)” value was 2.5 µg/mL (≈ 7.13 µM). Further, the IC50 at human topoisomerase II (read-out: IC50 (hTOPO II inhibition)) is 6.5 µM; in the data set with HEK-293 (Homo sapiens, HEK293, 72 h treatment, MTT, ± SD, read-out: IC50 (antiproliferative activity)), 0.008 ± 0.007 µM; in the data set with HEPG2 (Homo sapiens, HEPG2, 72 h treatment, MTT, ± SD, read-out: IC50 (antiproliferative activity)) it was 0.129 ± 0.037 µM; in the data set on HEK-293 and HEPG2 it was no more than 1 µM. Also, the MIC90 (in the data set on Candida krusei ATCC 6258 [5]; in data set [7]; in [9]; in data set [10]; in [11]) was greater than 64 µg/mL throughout. Besides, the “antifungal activity” value in the data set with Candida albicans and with reference strains (as reported in Table 1) was “no antifungal activity was observed” in each case. For the same compound, the “Antifungal Activity (level)” value with reference strains (Table 3) was “−”. Besides, on yeast topoisomerase II [12], the “concentration that totally inhibited yeast topoisomerase II-mediated relaxation” value turned out to be 50 µM.

As to `N=C(N)NCCC[C@H](NC(=O)[C@H](CCCNC(=N)N)NC(=O)[C@H](CCCNC(=N)N)NC(=O)[C@H](CCCNC(=N)N)NC(=O)[C@H](CCCNC(=N)N)NC(=O)[C@H](CCCNC(=N)N)NC(=O)[C@H](CCCNC(=N)N)NC(=O)[C@@H](N)CCCNC(=N)N)C(=O)O` [Compound R8, Octaarginine], the MIC90 with Candida albicans F5 is greater than 64 µg/mL; in the data set on Candida albicans Gu5, greater than 64 µg/mL; in data set [2] (ATCC 22019, 24 h, pH 7), 64 µg/mL (≈ 50.5 µM); in the data set with Candida krusei ATCC 6258 [3] (ATCC 6258, 24 h, pH 7), greater than 64 µg/mL; in data set [4] (ATCC 90030, 24 h, pH 7) it was greater than 64 µg/mL; with Candida albicans F2, greater than 64 µg/mL. The MIC90 in data set [6] (ATCC 10231, 18 h) was greater than 64 µg/mL; in data set [6] (ATCC 10231, 24 h, pH 7) it was greater than 64 µg/mL; in data set [8] (ATCC 9763, 24 h, pH 7), 64 µg/mL (≈ 50.5 µM); against Candida albicans B3, greater than 64 µg/mL; in the data set with Candida albicans B4, greater than 64 µg/mL; against Candida albicans Gu4, greater than 64 µg/mL. The IC50 in the data set on HEK-293 (72 h) and with HEPG2 (72 h) was greater than 50 µM throughout. Moreover, in the data set on HeLa cells, the cytotoxicity result is “no cytotoxicity”.
